This note sets out measurements from paper PMC5768343, “A natural inhibitor of kidney-type glutaminase: a withanolide from Physalis pubescens with potent anti-tumor activity” (Oncotarget, 2017).

The IC50 is the concentration needed to halve the response being measured. In general, Kd refers to the free concentration of one partner at which half of the binding sites on the other are occupied at equilibrium, for simple one-to-one binding.

The subject of assay [1] is erlotinib-resistant human non-small cell lung cancer cells (HCC827-ER). Kind of assay: CCK8 cytotoxicity / proliferation assay, HCC827-ER. It is filed as cell-based. Here is the method:
(§1) The experiment was performed in triplicate.

In assay [2] the test system is SW1990 cells. Put plainly: Combination with benserazide, CCK8 viability and CompuSyn combination index. It is filed as cell-based, human. To be noted: combined use with benserazide, ratio less than 1:50, CompuSyn. The source says:
Tumor cells are speculated to maintain growth and proliferation through a variety of energy metabolism pathways. Therefore, targeting at a single energy metabolism material might not be an effective method for cancer therapy. It has been determined that growing cancer cells were strongly dependent on energy sources such as glucose and glutamine. We supposed that the blocking of both glucose and glutamine metabolism pathways could display a synergistic tumor inhibition. Hexokinase 2 (HK2) was the crucial enzyme controlling the first step of glycolysis, and systemic deletion of HK2 can impair the tumor progression in mouse models. Nowadays, Metformin (Met), 2-Deoxyglucose (2-DG) and 3-Bromopyruvate (3-BrPA) are most commonly reported HK2 inhibitors. […] The combined inhibitory effects of physapubescin K and benserazide on the growth of SW1990 cells were evaluated. […]
Figure 8 Synergy of physapubescin K (PSBK) in combination treatments (A) Cells were cultured for 1 day with or without the indicated doses of PSBK and benserazide, and cell viability was evaluated by CCK8 assay. (B) At the indicated concentration ratio of PSBK: benserazide combinations at different effect levels, ED50, ED75 and ED95 were calculated using the CompuSyn software. […] The proportion of cells in proliferation is counted by manual counting (D).

The test system of assay [3] is human pancreatic cancer cells (SW1990). Put plainly: CCK8 cytotoxicity / proliferation assay, SW1990. Particulars: for relative cell vitality: CCK8.
Description: (§2) The SW1990, HT1080, and A375-S2 human tumor cell lines were obtained from ATCC (Manassas, VA, USA). […] SW1990, HT1080, and LO2 cells were cultured in DMEM medium with 10% fetal bovine serum (FBS). All of these cells were cultured at 37°C in a humidified atmosphere with 5% CO2. To estimate cell viability, cells (5000/well) were separately seeded in 96-well plates for 24 h at 37°C in a 5% CO2 incubator. […] All the experiments were performed in triplicate, and the mean absorbance values were calculated. The IC50 values of the compounds were derived from the mean OD values of the triplicate tests versus the drug concentration curves.
Cell proliferation was assessed by incubating them with Cell Counting Kit-8 reagents (Dojindo, Shanghai, China) for 24 h, 48 h, 72 h, 96 h at 37°C and measuring the absorbance at 450 nm. The experiment was performed in triplicate.
For assay [4], the system named is SW1990 cells. Kind of assay: ROS quantification (DCFDA assay). It is filed as cell-based, human. Particulars: 2.5 or 5 μM, 24 h. Here is the method:
DCFDA assay was performed 24 h after interfered with difference concentration of physapubescin K or DMSO. Cells were incubated with 5 μM 2′,7′-dichlorodihydrofluorescein diacetate (DCFDA, KeyGen, Nanjing, China A124) for 30 min. Cells were washed twice with PBS to remove excess DCFDA, and the labeled cells were then collected in PBS. The fluorescent of 2′,7′-dichloro-fluorescein (DCF) was proportionate to ROS generation and was measured by microplate reader.

Assay [5] concerns HCC827-ER. Put plainly: EdU and DAPI double staining, combination with erlotinib. It counts as cell-based, human. To be noted: 0.5 μM with erlotinib 1, 2, 4, 8 μM. Here is the method: The logarithmic growth phase cells were seeded in 24-well plates at 2 × 10^4 ∼ 5 × 10^5 cells per well. After 4–6 h, the medium was removed, the medium containing no or different concentrations of compound was replaced, and 50 μM of EdU was added. 2 h later, the medium was removed, cells washed by PBS. 200 μL of cell fixative (i.e., PBS containing 4% paraformaldehyde) was added and incubated at room temperature for 30 minutes. The solution was discarded and 200 μL of 2 mg/mL glycine was added to each well. After 5 minutes of incubation, the glycine solution was discarded. Each well washed with 200 μL of PBS, rinse for 5 minutes, and PBS was removed. Apollo staining was added to each well with 200 μL of 1 X Apollo® staining solution. After incubation for 30 minutes at room temperature and decolorization, the reaction solution was discarded. Similarly, 200 μL of 1 × Hoechst 33342 solution was added to each well to dye the total DNA. After 30 minutes of incubation at room temperature and the reaction solution was discarded, and then the images were captured and analyzed by fluorescence microscopy.

The target of assay [6] is T1, KGA (recombinant cKGA) (Homo sapiens, UniProt O94925).
T1 construct: human KGA (cKGA) encoding amino acids 221–553 was cloned into pET26b vector; His tag (C); made in house; host or cells: E. coli BL21 (DE3)-RIL-Codon plus
T1 sequence (O94925 221-553): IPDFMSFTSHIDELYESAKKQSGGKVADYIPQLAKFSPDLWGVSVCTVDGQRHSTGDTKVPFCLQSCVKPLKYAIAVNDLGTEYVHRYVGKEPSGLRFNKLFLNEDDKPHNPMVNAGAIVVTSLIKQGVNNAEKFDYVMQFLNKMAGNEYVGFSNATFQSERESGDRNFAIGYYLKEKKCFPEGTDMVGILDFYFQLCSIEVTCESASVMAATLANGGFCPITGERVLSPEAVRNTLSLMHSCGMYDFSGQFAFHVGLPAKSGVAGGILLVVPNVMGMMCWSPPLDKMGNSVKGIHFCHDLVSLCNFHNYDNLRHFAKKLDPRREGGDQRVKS
Put plainly: Microscale thermophoresis (MST) binding assay. Particulars: labeled KGA 200 nM, 26°C. An excerpt: Specific details were referenced to our previous work.
On the technique in general: In MST a laser heats a spot of the sample, and binding alters the fluorescence response.

Assay [7] has as its system human normal liver cell LO2. Put plainly: CCK8 cytotoxicity / proliferation assay, LO2. It counts as cell-based. To be noted: CCK8, 48 h. Here is the method: as §1
Assay [8] concerns SW1990 cells. Put plainly: EdU and DAPI double staining proliferation assay, SW1990. It counts as cell-based, human. To be noted: 5 μM.
Assay [9] concerns human fibrosarcoma cells (HT1080). Kind of assay: CCK8 cytotoxicity assay, HT1080. It counts as cell-based. To be noted: HT-1080, CCK8, 48 h. (Tetrazolium dyes change colour on reduction, which living cells bring about.)
Description: as §2
In assay [10] the test system is SW1990 xenograft. Put plainly: SW1990 xenograft mouse model. To be noted: 5 mg/kg intraperitoneal injection daily, P < 0.01, dose-dependent. It is filed as in vivo. As for the experimental part: All animal experiments were performed in accordance with the Guide for the Care and Use of Laboratory Animals of Tongji Medical College, Huazhong University of Science and Technology and approved by the Ethics Committee. CB-17/ SCID mice (male, 4 weeks old) were purchased from Beijing HFK Bioscience CO., LTD (Beijing, China). SW1990 cells were inoculated subcutaneously (3 × 10^6 cells) into the left flank of each mouse. Six days later, mice were randomly divided into […] and were injected i.p. daily for 16 days with one of the following treatments: (1) natural saline group (n = 10); (2) 5 mg/Kg physapubescin K (n = 10); (3) 10 mg/Kg physapubescin K (n = 10). The dose volume was 0.1 mL/10 g body weight, and the weights of mice were recorded every day. Meanwhile, the tumor volumes were measured with vernier calipers and calculated by the following formula: (A × B2)/2, where A was length and B was width of the two-dimension tumor. After animals were sacrificed, tumor weights were measured. The inhibition ratio (%) was calculated using the following equation: I% = 100% × [Wtumor (vehicle) − Wtumor (treated)]/Wtumor (vehicle)

Turning to `CO[C@H]1O[C@@H]([C@@H](C)[C@H]2C[C@H](OC(C)=O)[C@H]3[C@@H]4C[C@H]5O[C@]56[C@@H](O)C=CC(=O)[C@]6(C)[C@H]4CC[C@@]32C)C[C@]2(C)O[C@]12C` [physapubescin K], the “sensitivity of cell growth to treatment” value in [1] (HCC827-ER, 1 μM) is on record as “sensitive”; in assay [3] (SW1990, 1 μM), “sensitive”. In addition, the IC50 in [1] (Homo sapiens, HCC827ER, CCK8, 48 h) was determined as 720 ± 220 nM; in assay [3] (Homo sapiens, SW1990, 48 h, read-out: IC50 SW1990), 2210 ± 10 nM; in assay [7], 11700 ± 320 nM; in assay [9] it was 2850 ± 600 nM. The CI value result in [2] is “less than 0.8”. In addition, the relative cell vitality in assay [3] (SW1990, 2 μM, 24 h) is 50.3%; in assay [3] (SW1990, 2 μM, 36 h), 37.6%; in assay [3] (SW1990, 2 μM, 48 h), 27.3%. Moreover, the cell proliferation entry in assay [3] (SW1990, 2 μM, alleviated by addition of 4 mM glutamate) is “significantly inhibited cell proliferation”. In addition, the “intracellular reactive oxygen species (ROS) levels” value in assay [4] was “significantly increase”. Besides, the “sensitivity of HCC827-ER to erlotinib” value in assay [5] is recorded as “significantly increase the sensitivity”. Besides, the Kd in assay [6] worked out at 3030 ± 380 nM. Besides, in assay [8], the proliferated cell ratio entry is given as “close to zero”. For the same molecule, the “growth of the tumor” value in assay [10] is listed as “significantly inhibit the growth of the tumor”.
